Reference: BigSolDB 2.1

Cc1ccc2cc(C)ccc2c1
Details	solubility (mole fraction)
in cyclohexane, 293.18 K	0.03
in cyclohexane, 298.86 K	0.0398
in cyclohexane, 305.57 K	0.0513
in cyclohexane, 312.3 K	0.0714
in cyclohexane, 318.76 K	0.096
in cyclohexane, 323.07 K	0.115
in cyclohexane, 325.79 K	0.134
in cyclohexane, 333.08 K	0.187
in cyclohexane, 339.97 K	0.253
in ethyl acetate, 287.56 K	0.0424
in ethyl acetate, 292.27 K	0.0494
in ethyl acetate, 298.27 K	0.0585
in ethyl acetate, 305.69 K	0.0775
in ethyl acetate, 311.52 K	0.0957
in ethyl acetate, 318.89 K	0.123
in ethyl acetate, 325.2 K	0.158
in ethyl acetate, 332.01 K	0.2
in ethyl acetate, 338.58 K	0.256
in isooctane, 288.36 K	0.0234
in isooctane, 293.19 K	0.0294
in isooctane, 298.62 K	0.0344
in isooctane, 306.77 K	0.0487
in isooctane, 315.41 K	0.0725
in isooctane, 322.03 K	0.0905
in isooctane, 327.1 K	0.113
in isooctane, 334.57 K	0.149
in isooctane, 341.2 K	0.197
in isopropanol, 286.65 K	0.0054
in isopropanol, 294.55 K	0.0072
in isopropanol, 301.45 K	0.0098
in isopropanol, 309.65 K	0.0136
in isopropanol, 315.75 K	0.0174
in isopropanol, 323.22 K	0.023
in isopropanol, 330.55 K	0.0297
in isopropanol, 335.95 K	0.0371
in isopropanol, 341.65 K	0.0517
in n-heptane, 288.85 K	0.0289
in n-heptane, 293.58 K	0.0359
in n-heptane, 298.72 K	0.0433
in n-heptane, 304.56 K	0.0529
in n-heptane, 311.77 K	0.0632
in n-heptane, 317.8 K	0.0775
in n-heptane, 324.79 K	0.0979
in n-heptane, 332.39 K	0.132
in n-heptane, 339.42 K	0.17
in n-propyl acetate, 286.65 K	0.0485
in n-propyl acetate, 293.5 K	0.0638
in n-propyl acetate, 300.85 K	0.0815
in n-propyl acetate, 307.41 K	0.103
in n-propyl acetate, 313.85 K	0.127
in n-propyl acetate, 320.65 K	0.159
in n-propyl acetate, 328.22 K	0.206
in n-propyl acetate, 333.46 K	0.245
in n-propyl acetate, 338.17 K	0.289
